{"source": "paper PMC6704710", "about": "“Preclinical evaluation of 3D185, a novel potent inhibitor of FGFR1/2/3 and CSF-1R, in FGFR-dependent and macrophage-dominant cancer models” (Journal of Experimental & Clinical Cancer Research : CR, 2019)", "assay_in_all_cases": "Eurofins kinase panel", "type_in_all_cases": "biochemical", "conditions_in_all_cases": "read-out: Inhibition rate (%)", "key": {"TTBK2(h)": {"target": "T1, TTBK2(h) (Homo sapiens, UniProt Q6IQ55)", "T1 construct": "purchased Eurofins (KinaseProfiler)"}, "PDGFRα(V561D)(h)": {"target": "T2, PDGFRα(V561D)(h) (Homo sapiens, UniProt P16234, V561D)", "T2 construct": "purchased Eurofins (KinaseProfiler)", "T2 sequence (P16234 24-1089 V561D)": "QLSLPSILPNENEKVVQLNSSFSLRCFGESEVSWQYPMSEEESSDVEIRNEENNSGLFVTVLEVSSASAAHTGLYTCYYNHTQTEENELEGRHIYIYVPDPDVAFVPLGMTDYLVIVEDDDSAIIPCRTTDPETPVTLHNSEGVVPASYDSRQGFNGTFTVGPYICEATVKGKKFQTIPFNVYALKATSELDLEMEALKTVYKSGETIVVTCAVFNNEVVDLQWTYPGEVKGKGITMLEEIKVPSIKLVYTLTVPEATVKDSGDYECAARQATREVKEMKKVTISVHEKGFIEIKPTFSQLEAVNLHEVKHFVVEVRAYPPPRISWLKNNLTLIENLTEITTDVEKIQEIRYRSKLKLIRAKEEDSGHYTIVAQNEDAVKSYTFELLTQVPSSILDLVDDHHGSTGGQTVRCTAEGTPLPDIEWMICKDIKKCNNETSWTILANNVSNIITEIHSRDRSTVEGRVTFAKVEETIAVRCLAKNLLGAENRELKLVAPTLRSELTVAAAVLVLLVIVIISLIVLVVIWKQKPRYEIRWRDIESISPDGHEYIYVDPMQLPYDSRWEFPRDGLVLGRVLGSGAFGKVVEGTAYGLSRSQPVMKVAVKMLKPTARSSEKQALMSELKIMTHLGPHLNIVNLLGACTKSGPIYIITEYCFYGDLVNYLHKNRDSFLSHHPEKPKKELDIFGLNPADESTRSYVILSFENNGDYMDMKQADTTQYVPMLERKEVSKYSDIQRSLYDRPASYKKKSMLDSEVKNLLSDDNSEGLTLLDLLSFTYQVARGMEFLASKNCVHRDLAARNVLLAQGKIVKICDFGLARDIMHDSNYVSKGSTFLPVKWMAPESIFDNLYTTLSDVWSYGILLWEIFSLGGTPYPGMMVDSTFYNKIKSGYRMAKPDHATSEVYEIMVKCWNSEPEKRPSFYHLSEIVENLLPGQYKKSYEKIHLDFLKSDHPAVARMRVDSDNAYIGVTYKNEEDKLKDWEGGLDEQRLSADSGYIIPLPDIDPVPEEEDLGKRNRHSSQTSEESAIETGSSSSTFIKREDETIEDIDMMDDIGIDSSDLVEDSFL"}, "TAO3(h)": {"target": "T3, TAO3(h) (Homo sapiens, UniProt Q9H2K8)", "T3 construct": "purchased Eurofins (KinaseProfiler)", "T3 sequence (Q9H2K8 1-898)": "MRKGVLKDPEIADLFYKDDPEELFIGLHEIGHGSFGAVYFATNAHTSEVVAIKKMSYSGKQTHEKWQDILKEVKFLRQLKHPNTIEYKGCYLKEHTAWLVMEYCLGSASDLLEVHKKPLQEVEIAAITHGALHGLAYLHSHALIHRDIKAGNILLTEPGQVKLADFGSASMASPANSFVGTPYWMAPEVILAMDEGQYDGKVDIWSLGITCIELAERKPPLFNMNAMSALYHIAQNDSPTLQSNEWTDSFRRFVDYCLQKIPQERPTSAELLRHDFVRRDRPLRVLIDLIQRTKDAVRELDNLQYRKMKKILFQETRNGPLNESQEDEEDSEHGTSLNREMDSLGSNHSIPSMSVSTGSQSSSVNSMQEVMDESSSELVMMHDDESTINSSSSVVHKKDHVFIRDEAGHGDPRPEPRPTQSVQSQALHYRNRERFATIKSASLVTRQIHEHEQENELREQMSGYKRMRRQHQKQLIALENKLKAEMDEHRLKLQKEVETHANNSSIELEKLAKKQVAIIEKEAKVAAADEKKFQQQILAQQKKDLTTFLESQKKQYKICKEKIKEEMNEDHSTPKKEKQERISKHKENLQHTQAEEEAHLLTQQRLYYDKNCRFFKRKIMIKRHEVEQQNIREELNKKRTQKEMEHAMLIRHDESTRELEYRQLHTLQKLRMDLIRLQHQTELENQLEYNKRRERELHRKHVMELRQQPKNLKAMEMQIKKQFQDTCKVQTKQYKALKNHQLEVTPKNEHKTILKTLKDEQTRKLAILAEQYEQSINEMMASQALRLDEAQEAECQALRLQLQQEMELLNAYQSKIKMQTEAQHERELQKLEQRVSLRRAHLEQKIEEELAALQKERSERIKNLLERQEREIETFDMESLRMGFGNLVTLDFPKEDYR"}, "ZAP-70(h)": {"target": "T4, ZAP-70(h) (Homo sapiens, UniProt P43403)", "T4 construct": "purchased Eurofins (KinaseProfiler)", "T4 sequence (P43403 1-619)": "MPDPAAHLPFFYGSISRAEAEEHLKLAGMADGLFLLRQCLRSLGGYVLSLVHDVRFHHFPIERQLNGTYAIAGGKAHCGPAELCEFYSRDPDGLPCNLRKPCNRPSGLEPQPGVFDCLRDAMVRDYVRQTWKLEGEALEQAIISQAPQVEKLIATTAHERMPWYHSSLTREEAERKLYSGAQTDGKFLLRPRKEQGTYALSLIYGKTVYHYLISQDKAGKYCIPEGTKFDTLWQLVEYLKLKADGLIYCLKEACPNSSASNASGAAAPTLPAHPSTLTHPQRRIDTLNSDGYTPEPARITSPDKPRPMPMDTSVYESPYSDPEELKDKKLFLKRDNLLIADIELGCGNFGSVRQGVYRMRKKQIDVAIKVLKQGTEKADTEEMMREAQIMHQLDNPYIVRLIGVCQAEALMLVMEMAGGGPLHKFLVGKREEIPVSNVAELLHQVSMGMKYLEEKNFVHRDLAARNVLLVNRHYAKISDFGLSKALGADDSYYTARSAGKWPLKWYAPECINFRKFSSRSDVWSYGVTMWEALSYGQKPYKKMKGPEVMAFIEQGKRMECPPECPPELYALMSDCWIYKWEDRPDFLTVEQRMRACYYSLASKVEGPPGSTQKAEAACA"}, "PKCβI(h)": {"target": "T5, PKCβI(h) (Homo sapiens, UniProt P05771)", "T5 construct": "purchased Eurofins (KinaseProfiler)", "T5 sequence (P05771 whole entry)": "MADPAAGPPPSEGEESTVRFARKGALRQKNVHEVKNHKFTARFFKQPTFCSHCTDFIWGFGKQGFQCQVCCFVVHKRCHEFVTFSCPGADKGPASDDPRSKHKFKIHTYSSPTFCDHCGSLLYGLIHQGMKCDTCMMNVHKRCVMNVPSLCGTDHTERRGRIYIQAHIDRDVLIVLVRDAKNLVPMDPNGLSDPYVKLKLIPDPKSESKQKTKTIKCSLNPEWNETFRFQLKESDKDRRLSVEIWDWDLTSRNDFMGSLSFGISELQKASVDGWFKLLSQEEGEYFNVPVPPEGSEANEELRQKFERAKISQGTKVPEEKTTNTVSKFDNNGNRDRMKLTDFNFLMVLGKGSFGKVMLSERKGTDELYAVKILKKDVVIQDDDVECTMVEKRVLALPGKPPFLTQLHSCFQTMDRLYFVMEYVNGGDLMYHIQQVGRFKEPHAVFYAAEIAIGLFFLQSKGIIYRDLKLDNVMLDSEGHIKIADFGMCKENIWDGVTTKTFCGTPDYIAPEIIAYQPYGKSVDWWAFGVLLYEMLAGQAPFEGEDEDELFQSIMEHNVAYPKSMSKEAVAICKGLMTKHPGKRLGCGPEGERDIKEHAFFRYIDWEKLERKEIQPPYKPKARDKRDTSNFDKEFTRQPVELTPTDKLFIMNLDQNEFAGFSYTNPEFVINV"}, "Met(h)": {"target": "T6, Met(h) (Homo sapiens, UniProt P08581)", "T6 construct": "purchased Eurofins (KinaseProfiler)", "T6 sequence (P08581 25-1390)": "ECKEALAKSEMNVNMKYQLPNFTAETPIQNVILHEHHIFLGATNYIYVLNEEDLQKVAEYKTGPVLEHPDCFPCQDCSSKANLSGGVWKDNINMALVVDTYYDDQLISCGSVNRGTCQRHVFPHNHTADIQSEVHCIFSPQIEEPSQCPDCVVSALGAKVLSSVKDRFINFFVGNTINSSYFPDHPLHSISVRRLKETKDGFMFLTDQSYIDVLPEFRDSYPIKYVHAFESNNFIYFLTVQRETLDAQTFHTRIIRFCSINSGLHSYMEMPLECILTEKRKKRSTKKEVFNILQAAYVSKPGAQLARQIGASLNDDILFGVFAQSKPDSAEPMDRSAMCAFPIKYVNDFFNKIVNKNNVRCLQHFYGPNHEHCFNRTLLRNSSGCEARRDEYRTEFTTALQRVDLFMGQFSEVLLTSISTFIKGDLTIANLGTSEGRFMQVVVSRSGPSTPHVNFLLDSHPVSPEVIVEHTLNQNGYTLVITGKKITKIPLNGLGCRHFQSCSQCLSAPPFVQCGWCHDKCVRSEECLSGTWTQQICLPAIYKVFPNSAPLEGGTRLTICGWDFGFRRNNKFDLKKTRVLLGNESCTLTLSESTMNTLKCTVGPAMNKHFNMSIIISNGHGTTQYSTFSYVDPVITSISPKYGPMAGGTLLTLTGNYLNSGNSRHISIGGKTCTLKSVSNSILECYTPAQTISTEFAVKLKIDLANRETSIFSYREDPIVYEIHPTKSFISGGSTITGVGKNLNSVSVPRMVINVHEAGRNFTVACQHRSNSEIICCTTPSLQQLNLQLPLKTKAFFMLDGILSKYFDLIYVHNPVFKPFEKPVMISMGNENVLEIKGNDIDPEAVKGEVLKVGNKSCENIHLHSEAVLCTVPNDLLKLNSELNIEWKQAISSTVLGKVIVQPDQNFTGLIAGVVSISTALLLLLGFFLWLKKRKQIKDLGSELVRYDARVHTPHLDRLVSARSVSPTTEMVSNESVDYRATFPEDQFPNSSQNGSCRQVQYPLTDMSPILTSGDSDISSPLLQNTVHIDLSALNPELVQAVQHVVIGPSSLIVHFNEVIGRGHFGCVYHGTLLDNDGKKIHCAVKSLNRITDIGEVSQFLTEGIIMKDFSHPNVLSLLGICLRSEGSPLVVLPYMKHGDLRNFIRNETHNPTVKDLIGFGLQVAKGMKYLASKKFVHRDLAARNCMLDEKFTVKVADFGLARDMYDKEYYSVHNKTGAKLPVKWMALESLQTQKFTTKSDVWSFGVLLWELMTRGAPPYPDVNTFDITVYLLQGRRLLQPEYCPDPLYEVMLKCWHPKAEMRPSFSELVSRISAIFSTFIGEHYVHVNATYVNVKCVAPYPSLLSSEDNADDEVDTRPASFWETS"}, "PDK1(h)": {"target": "T7, PDK1(h) (Homo sapiens, UniProt O15530)", "T7 construct": "purchased Eurofins (KinaseProfiler)", "T7 sequence (O15530 1-556)": "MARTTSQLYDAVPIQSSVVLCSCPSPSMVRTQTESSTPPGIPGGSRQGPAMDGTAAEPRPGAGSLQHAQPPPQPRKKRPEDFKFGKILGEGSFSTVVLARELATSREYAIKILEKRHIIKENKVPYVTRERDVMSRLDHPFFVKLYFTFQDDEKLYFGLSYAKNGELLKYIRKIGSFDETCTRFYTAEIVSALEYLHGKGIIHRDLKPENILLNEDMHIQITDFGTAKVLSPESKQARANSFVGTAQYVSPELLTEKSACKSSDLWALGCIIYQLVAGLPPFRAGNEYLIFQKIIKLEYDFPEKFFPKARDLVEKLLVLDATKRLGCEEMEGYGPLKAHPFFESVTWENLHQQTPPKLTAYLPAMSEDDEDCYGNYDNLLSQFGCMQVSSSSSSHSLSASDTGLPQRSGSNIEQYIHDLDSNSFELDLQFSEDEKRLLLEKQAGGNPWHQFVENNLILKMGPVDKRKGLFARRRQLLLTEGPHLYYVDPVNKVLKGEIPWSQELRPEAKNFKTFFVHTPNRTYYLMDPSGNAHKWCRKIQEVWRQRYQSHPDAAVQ"}, "PDGFRα(h)": {"target": "T8, PDGFRα(h) (Homo sapiens, UniProt P16234)", "T8 construct": "purchased Eurofins (KinaseProfiler)", "T8 sequence (P16234 24-1089)": "as the sequence (P16234 24-1089 V561D) above, with D538V counted along it"}, "SBK1(h)": {"target": "T9, SBK1(h) (Homo sapiens, UniProt Q52WX2)", "T9 construct": "purchased Eurofins (KinaseProfiler)", "T9 sequence (Q52WX2 whole entry)": "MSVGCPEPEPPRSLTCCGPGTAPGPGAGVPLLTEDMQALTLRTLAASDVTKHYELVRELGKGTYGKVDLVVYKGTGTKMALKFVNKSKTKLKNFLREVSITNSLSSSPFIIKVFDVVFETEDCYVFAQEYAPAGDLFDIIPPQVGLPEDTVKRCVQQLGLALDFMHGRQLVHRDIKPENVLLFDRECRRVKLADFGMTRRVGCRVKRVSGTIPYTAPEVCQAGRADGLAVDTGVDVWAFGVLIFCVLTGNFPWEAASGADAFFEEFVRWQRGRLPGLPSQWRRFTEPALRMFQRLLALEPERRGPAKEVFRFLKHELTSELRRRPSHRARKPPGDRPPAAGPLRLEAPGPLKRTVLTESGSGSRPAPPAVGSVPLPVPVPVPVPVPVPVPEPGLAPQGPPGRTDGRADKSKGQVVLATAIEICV"}}}
{"smiles": "COc1cc(OC)c(Cl)c(-c2ccc3c(NC(=O)c4ccc(N5CCNC(C)(C)C5)cc4)n[nH]c3n2)c1Cl", "note": "[3D185]", "values": [{"measurement": "inhibition at 0.01 µM", "setting": "TTBK2(h); 10 nM", "value": -4, "unit": "%"}, {"measurement": "inhibition at 0.1 µM", "setting": "TTBK2(h); 100 nM", "value": -11, "unit": "%"}, {"measurement": "inhibition at 1 µM", "setting": "TTBK2(h); 1000 nM", "value": -9, "unit": "%"}, {"measurement": "inhibition at 0.01 µM", "setting": "PDGFRα(V561D)(h); 10 nM", "value": 5, "unit": "%"}, {"measurement": "inhibition at 0.1 µM", "setting": "PDGFRα(V561D)(h); 100 nM", "value": 23, "unit": "%"}, {"measurement": "inhibition at 1 µM", "setting": "PDGFRα(V561D)(h); 1000 nM", "value": 57, "unit": "%"}, {"measurement": "inhibition at 0.01 µM", "setting": "TAO3(h); 10 nM", "value": -1, "unit": "%"}, {"measurement": "inhibition at 0.1 µM", "setting": "TAO3(h); 100 nM", "value": 7, "unit": "%"}, {"measurement": "inhibition at 1 µM", "setting": "TAO3(h); 1000 nM", "value": 36, "unit": "%"}, {"measurement": "inhibition at 0.01 µM", "setting": "ZAP-70(h); 10 nM", "value": 12, "unit": "%"}, {"measurement": "inhibition at 0.1 µM", "setting": "ZAP-70(h); 100 nM", "value": 0, "unit": "%"}, {"measurement": "inhibition at 1 µM", "setting": "ZAP-70(h); 1000 nM", "value": 8, "unit": "%"}, {"measurement": "inhibition at 0.01 µM", "setting": "PKCβI(h); 10 nM", "value": -7, "unit": "%"}, {"measurement": "inhibition at 0.1 µM", "setting": "PKCβI(h); 100 nM", "value": -3, "unit": "%"}, {"measurement": "inhibition at 1 µM", "setting": "PKCβI(h); 1000 nM", "value": -1, "unit": "%"}, {"measurement": "inhibition at 0.01 µM", "setting": "Met(h); 10 nM", "value": 16, "unit": "%"}, {"measurement": "inhibition at 0.1 µM", "setting": "Met(h); 100 nM", "value": 15, "unit": "%"}, {"measurement": "inhibition at 1 µM", "setting": "Met(h); 1000 nM", "value": 55, "unit": "%"}, {"measurement": "inhibition at 0.01 µM", "setting": "PDK1(h); 10 nM", "value": -5, "unit": "%"}, {"measurement": "inhibition at 0.1 µM", "setting": "PDK1(h); 100 nM", "value": -14, "unit": "%"}, {"measurement": "inhibition at 1 µM", "setting": "PDK1(h); 1000 nM", "value": -4, "unit": "%"}, {"measurement": "inhibition at 0.01 µM", "setting": "PDGFRα(h); 10 nM", "value": 9, "unit": "%"}, {"measurement": "inhibition at 0.1 µM", "setting": "PDGFRα(h); 100 nM", "value": 6, "unit": "%"}, {"measurement": "inhibition at 1 µM", "setting": "PDGFRα(h); 1000 nM", "value": 10, "unit": "%"}, {"measurement": "inhibition at 0.01 µM", "setting": "SBK1(h); 10 nM", "value": -13, "unit": "%"}, {"measurement": "inhibition at 0.1 µM", "setting": "SBK1(h); 100 nM", "value": -3, "unit": "%"}, {"measurement": "inhibition at 1 µM", "setting": "SBK1(h); 1000 nM", "value": -10, "unit": "%"}]}
